US11406714B2, “Telodendrimers and nanocarriers and methods of using same” (The Research Foundation for the State University of New York, priority 2013, dated 2022)
Entries after “also recorded” stand apart in the source; their conditions may differ.

Assays:
Raji lymphoma xenograft [1] = experiment: In vivo cancer treatment; parameters: species or system nude mice; conditions: 10 mg/kg, days 0, 4 and 8, intravenous
Experimental: (§1) Female athymic nude mice (Nu/Nu strain), 6-8 weeks age, were purchased from Harlan. All animals were kept under pathogen-free conditions according to AAALAC (Association for Assessment and Accreditation of Laboratory Animal Care) guidelines and were allowed to acclimatize for at least 4 days prior to any experiments. All animal experiments were performed in compliance with institutional guidelines and according to protocol approved by the Committee for the Humane Use of Animals of State University of New York Upstate Medical University. Subcutaneous tumor xenograft mouse models were established by injecting 1×10^7 HT-29 or raji cancer cells in a 100 μL of mixture of PBS and Matrigel (1:1 v/v) subcutaneously at the right flank in female nude mice.
Subcutaneous Raji lymphoma xenograft mouse model was used to evaluate the therapeutic efficacy of different formulations of DOX. […] Tumor sizes were measured with a digital caliper twice per week. Tumor volume was calculated by the formula (L×W^2)/2, where L is the longest, and W is the shortest in tumor diameters (mm). To compare between groups, relative tumor volume (RTV) was calculated at each measurement time point (where RTV equals the tumor volume at given time point divided by the tumor volume prior to initial treatment). […]

[2] = Maximum tolerated dose (MTD) study; format: in vivo
Experimental: FIG. 24. An example of body weight lost for an animal treated with DOX loaded PEG^5kCA4-L-Rh4 at different dosage level, as well as the empty micelles for the test of the MTD studies. Among, the 15 mg/Kg dosage was repeated at day 0 and day 4 to study the MTD of multiple dosages.

[3] = system: HT-29 colon cancer xenografts; experiment: In vivo and ex vivo NIRF imaging and biodistribution; parameters: species or system nude mice
Experimental: as §1
(§2) Nude mice with subcutaneous tumors of an approximate 8 to 10 mm in diameter were subjected to in vivo NIRF optical imaging. At different time points post-injection of DiD and chemodrug (PTX or DOX or GA) co-loaded micelles (the mass ratio of DiD and PTX within nanocarrier was […]), mice were scanned using a IVIS-200 small animal imager at cy5.5 excitation and emission channels. The mice were anaesthetized by isofluorane gas before and during each imaging. After in vivo imaging, animals were euthanized by CO2 overdose after the last in vivo imaging. Tumors and major organs were excised and imaged with the IVIS-200 small animal imager.

Raji lymphoma xenograft [4] = experiment: as above; parameters: species or system nude mice; conditions: tail vein injection
Experimental: as §1, §2

SMILES | Tumor response (Raji lymphoma xenograft [1]) | MTD of free DOX [2] | Ex vivo biodistribution of fluorescence signal ([3]; after last in vivo imaging) | In vivo tumor targeting (fluorescence imaging) ([3]; tail vein injection, DiD signal) | Biodistribution of fluorescence signal (Raji lymphoma xenograft [4])
COc1cccc2c1C(=O)c1c(O)c3c(c(O)c1C2=O)C[C@@](O)(C(=O)CO)C[C@@H]3O[C@H]1C[C@H](N)[C@H](O)[C@H](C)O1 [DOX, Doxorubicin] | the cancer progression was slowed down | 10 mg/kg |  |  | 
CCCCCCCCCCCCCCCCCCN1C(=CC=CC=CC2=[N+](CCCCCCCCCCCCCCCCCC)c3ccccc3C2(C)C)C(C)(C)c2ccccc21.[O-][Cl+3]([O-])([O-])[O-] [DiD, 1,1′-dioctadecyl-3,3,3′,3′-tetramethylindodicarbocyanine perchlorate] |  |  | high uptake in liver, lung and spleen and low uptake in tumor; also recorded: high uptake of fluorescent signal in spleen and lung | nonspecific binding and low tumor uptake | high fluorescent uptake in the liver, lung and spleen and weak signal in the tumor
